Source: ChEMBL document CHEMBL3044672, “N9- and N7-(Chloromethyl Phenymethyl)Chloropurine Derivatives from , '-Dichloroxylenes: Synthesis and Anticancer Activity” (2005)

Columns and labels:
Type in all cases: functional
[1] = tested on: MOLT-4; experiment: Cytotoxicity against Homo sapiens (human) MOLT4 cells after 48 hr by sulforhodamine B assay; details: MOLT-4, 48 h; for CC50: read-out: LC50 (the source's name)
[2] = tested on: IGROV-1; experiment: Cytotoxicity against Homo sapiens (human) IGROV1 cells after 48 hr by sulforhodamine B assay; details: IGROV-1, 48 h
[3] = tested on: CAKI-1; experiment: Cytotoxicity against Homo sapiens (human) Caki1 cells after 48 hr by sulforhodamine B assay; details: CAKI-1, 48 h; for CC50: read-out: LC50 (the source's name)
[4] = tested on: A549; experiment: Cytotoxicity against Homo sapiens (human) A549 cells after 48 hr by sulforhodamine B assay; details: A549, 48 h; for CC50: read-out: LC50 (the source's name)
[5] = tested on: SK-MEL-2; experiment: Cytotoxicity against Homo sapiens (human) SK-MEL-2 cells after 48 hr by sulforhodamine B assay; details: SK-MEL-2, 48 h
[6] = tested on: T47D; experiment: Cytotoxicity against Homo sapiens (human) T47D cells after 48 hr by sulforhodamine B assay
[7] = tested on: SF-268; experiment: Cytotoxicity against Homo sapiens (human) SF268 cells after 48 hr by sulforhodamine B assay; details: SF-268, 48 h; for CC50: read-out: LC50 (the source's name)
[8] = tested on: HCC 2998; experiment: Cytotoxicity against Homo sapiens (human) HCC2998 cells after 48 hr by sulforhodamine B assay; details: HCC 2998, 48 h; for CC50: read-out: LC50 (the source's name)
[9] = tested on: Hs-578T; experiment: Cytotoxicity against Homo sapiens (human) Hs 578T cells after 48 hr by sulforhodamine B assay
[10] = tested on: UACC-257; experiment: Cytotoxicity against Homo sapiens (human) UACC257 cells after 48 hr by sulforhodamine B assay; details: UACC-257, 48 h
[11] = tested on: LOX IMVI; experiment: Cytotoxicity against Homo sapiens (human) LOXIMVI cells after 48 hr by sulforhodamine B assay
[12] = tested on: M14; experiment: Cytotoxicity against Homo sapiens (human) M14 cells after 48 hr by sulforhodamine B assay; details: M14, 48 h
[13] = tested on: SNB-19; experiment: Cytotoxicity against Homo sapiens (human) SNB19 cells after 48 hr by sulforhodamine B assay; details: SNB-19, 48 h
[14] = tested on: DU-145; experiment: Cytotoxicity against Homo sapiens (human) DU145 cells after 48 hr by sulforhodamine B assay; details: DU-145, 48 h
[15] = tested on: NCI-H322M; experiment: Cytotoxicity against Homo sapiens (human) NCI-H322M cells after 48 hr by sulforhodamine B assay; details: for CC50: read-out: LC50 (the source's name)
[16] = tested on: UACC-62; experiment: Cytotoxicity against Homo sapiens (human) UACC62 cells after 48 hr by sulforhodamine B assay; details: UACC-62, 48 h
[17] = tested on: MCF7; experiment: Cytotoxicity against Homo sapiens (human) MCF7 cells assessed as cell growth at 10^-4 M after 48 hr by Alamar blue assay; details: MCF7, 48 h, read-out: Activity
[18] = tested on: NCI-H23; experiment: Cytotoxicity against Homo sapiens (human) NCI-H23 cells after 48 hr by sulforhodamine B assay; details: NCI-H23, 48 h; for CC50: read-out: LC50 (the source's name)
[19] = tested on: 786-0; experiment: Cytotoxicity against Homo sapiens (human) 786-0 cells after 48 hr by sulforhodamine B assay; details: 786-0, 48 h
[20] = tested on: EKVX; experiment: Cytotoxicity against Homo sapiens (human) EKVX cells after 48 hr by sulforhodamine B assay; details: for CC50: read-out: LC50 (the source's name)
[21] = tested on: ACHN; experiment: Cytotoxicity against Homo sapiens (human) ACHN cells after 48 hr by sulforhodamine B assay; details: for CC50: read-out: LC50 (the source's name)
[22] = tested on: SF-295; experiment: Cytotoxicity against Homo sapiens (human) SF295 cells after 48 hr by sulforhodamine B assay; details: SF-295, 48 h; for CC50: read-out: LC50 (the source's name)
[23] = tested on: SK-MEL-5; experiment: Cytotoxicity against Homo sapiens (human) SK-MEL-5 cells after 48 hr by sulforhodamine B assay; details: SK-MEL-5, 48 h
[24] = Cytotoxicity against Homo sapiens (human) NCI-ADR-RES cells after 48 hr by sulforhodamine B assay
[25] = tested on: TK-10; experiment: Cytotoxicity against Homo sapiens (human) TK10 cells after 48 hr by sulforhodamine B assay; details: TK-10, 48 h; for CC50: read-out: LC50 (the source's name)
[26] = tested on: OVCAR-5; experiment: Cytotoxicity against Homo sapiens (human) OVCAR5 cells after 48 hr by sulforhodamine B assay; details: OVCAR-5, 48 h; for CC50: read-out: LC50 (the source's name)
[27] = tested on: SK-OV-3; experiment: Cytotoxicity against Homo sapiens (human) SKOV3 cells after 48 hr by sulforhodamine B assay; details: SK-OV-3, 48 h
[28] = tested on: MDA-MB-231; experiment: Cytotoxicity against Homo sapiens (human) MDA-MB-231 cells after 48 hr by sulforhodamine B assay; details: MDA-MB-231, 48 h
[29] = tested on: HOP-62; experiment: Cytotoxicity against Homo sapiens (human) HOP62 cells after 48 hr by sulforhodamine B assay; details: HOP-62, 48 h; for CC50: read-out: LC50 (the source's name)
[30] = tested on: RXF 393; experiment: Cytotoxicity against Homo sapiens (human) RXF393 cells after 48 hr by sulforhodamine B assay; details: RXF 393, 48 h
[31] = tested on: NCI-H460; experiment: Cytotoxicity against Homo sapiens (human) NCI-H460 cells after 48 hr by sulforhodamine B assay; details: NCI-H460, 48 h; for CC50: read-out: LC50 (the source's name)

ClCc1ccc(Cn2cnc3nc(Cl)nc(Cl)c32)cc1
GI50 [1]: 1.38 µM | TGI [1]: 5.49 µM | CC50 [1]: > 100 µM | GI50 [2]: 1.41 µM | LC50 [2]: 5.75 µM | TGI [2]: 2.81 µM | GI50 [3]: 1.44 µM | TGI [3]: 2.75 µM | CC50 [3]: 5.37 µM | GI50 [4]: 2.13 µM | TGI [4]: 4.07 µM | CC50 [4]: 7.94 µM | GI50 [5]: 1.12 µM | LC50 (concentration killing 50% of cells) [5]: 6.45 µM | TGI [5]: 2.69 µM | GI50 [6]: 10.2 µM | LC50 [6]: > 100 µM | TGI [6]: 46.8 µM | GI50 [7]: 1.99 µM | TGI [7]: 3.98 µM | CC50 [7]: 7.94 µM | GI50 [8]: 2.04 µM | TGI [8]: 3.8 µM | CC50 [8]: 7.07 µM | GI50 [9]: 19.1 µM | LC50 [9]: > 100 µM | TGI [9]: 44.7 µM | GI50 [10]: 2.23 µM | LC50 (concentration killing 50% of cells) [10]: 34.7 µM | TGI [10]: 5.49 µM | GI50 [11]: 1.62 µM | LC50 [11]: 6.45 µM | TGI [11]: 3.23 µM | GI50 [12]: 1.44 µM | LC50 [12]: 6.91 µM | TGI [12]: 3.16 µM | GI50 [13]: 29.5 µM | LC50 [13]: > 100 µM | TGI [13]: > 100 µM | GI50 [14]: 1.81 µM | LC50 [14]: 6.6 µM | TGI [14]: 3.46 µM | GI50 [15]: 0.67 µM | TGI [15]: 1.9 µM | CC50 [15]: 4.46 µM | GI50 [16]: 1.65 µM | LC50 (concentration causing 50% net cell kill) [16]: 6.02 µM | TGI [16]: 3.16 µM | growth at 100 µM [17]: 1% | GI50 [18]: 2.34 µM | TGI [18]: 4.57 µM | CC50 [18]: 8.91 µM | GI50 [19]: 1.9 µM | LC50 [19]: 7.41 µM | TGI [19]: 3.71 µM | GI50 [20]: 1.9 µM | TGI [20]: 3.46 µM | CC50 [20]: 6.3 µM | GI50 [21]: 1.9 µM | TGI [21]: 3.31 µM | CC50 [21]: 5.75 µM | GI50 [22]: 1.81 µM | TGI [22]: 3.31 µM | CC50 [22]: 5.88 µM | GI50 [23]: 2.45 µM | LC50 [23]: 31.6 µM | TGI [23]: 9.12 µM | GI50 [24]: 2.08 µM | TGI [24]: 4.46 µM | GI50 [25]: 0.12 µM | TGI [25]: 0.29 µM | CC50 [25]: 0.72 µM | GI50 [26]: 2.18 µM | TGI [26]: 4.26 µM | CC50 [26]: 8.31 µM | GI50 [27]: 2.34 µM | LC50 [27]: 18.2 µM | TGI [27]: 5.01 µM | GI50 [28]: 1.62 µM | LC50 [28]: 6.02 µM | TGI [28]: 3.09 µM | GI50 [29]: 1.9 µM | TGI [29]: 3.89 µM | CC50 [29]: 7.94 µM | GI50 [30]: 1.65 µM | TGI [30]: 3.98 µM | GI50 [31]: 15.5 µM | TGI [31]: 35.5 µM | CC50 [31]: 79.4 µM

ClCc1ccc(Cn2cnc3c(Cl)nc(Cl)nc32)cc1
GI50 [1]: 10.5 µM | TGI [1]: 27.5 µM | CC50 [1]: 72.4 µM | GI50 [2]: 15.1 µM | LC50 [2]: 60.3 µM | TGI [2]: 30.2 µM | GI50 [3]: 9.12 µM | TGI [3]: 21.4 µM | CC50 [3]: 46.8 µM | GI50 [4]: 18.6 µM | TGI [4]: 37.1 µM | CC50 [4]: 74.1 µM | GI50 [5]: 19.9 µM | LC50 (concentration killing 50% of cells) [5]: 95.5 µM | TGI [5]: 43.6 µM | GI50 [6]: 1.38 µM | LC50 [6]: > 100 µM | TGI [6]: 5.5 µM | GI50 [7]: 2.51 µM | TGI [7]: 5.37 µM | CC50 [7]: 42.7 µM | GI50 [8]: 10.2 µM | TGI [8]: 24 µM | CC50 [8]: 56.2 µM | GI50 [9]: 2.14 µM | LC50 [9]: > 100 µM | TGI [9]: 5.75 µM | GI50 [10]: 16.2 µM | LC50 (concentration killing 50% of cells) [10]: 69.2 µM | TGI [10]: 33.1 µM | GI50 [11]: 2.04 µM | LC50 [11]: 8.32 µM | TGI [11]: 4.17 µM | GI50 [12]: 10.7 µM | LC50 [12]: 53.7 µM | TGI [12]: 24 µM | GI50 [13]: 2.51 µM | LC50 [13]: > 100 µM | TGI [13]: 7.08 µM | GI50 [14]: 5.62 µM | LC50 [14]: 42.7 µM | TGI [14]: 17.8 µM | GI50 [15]: 12.6 µM | TGI [15]: 25.1 µM | CC50 [15]: 50.1 µM | GI50 [16]: 2.04 µM | LC50 (concentration causing 50% net cell kill) [16]: 9.33 µM | TGI [16]: 4.37 µM | growth at 100 µM [17]: 0% | GI50 [18]: 7.59 µM | TGI [18]: 23.4 µM | CC50 [18]: 58.9 µM | GI50 [19]: 14.1 µM | LC50 [19]: 61.7 µM | TGI [19]: 29.5 µM | GI50 [20]: 17.4 µM | TGI [20]: 31.6 µM | CC50 [20]: 58.9 µM | GI50 [21]: 2.34 µM | TGI [21]: 5.25 µM | CC50 [21]: 14.8 µM | GI50 [22]: 7.24 µM | TGI [22]: 19.5 µM | CC50 [22]: 44.7 µM | GI50 [23]: 6.46 µM | LC50 [23]: 44.7 µM | TGI [23]: 19.1 µM | GI50 [24]: 16.6 µM | LC50 (concentration killing 50% of cells) [24]: > 100 µM | TGI [24]: > 100 µM | GI50 [25]: 6.61 µM | TGI [25]: 20.4 µM | CC50 [25]: 44.7 µM | GI50 [26]: 18.2 µM | TGI [26]: 34.7 µM | CC50 [26]: 66.1 µM | GI50 [27]: 13.5 µM | LC50 [27]: 66.1 µM | TGI [27]: 29.5 µM | GI50 [28]: 1.82 µM | LC50 [28]: 7.24 µM | TGI [28]: 3.63 µM | GI50 [29]: 2.19 µM | TGI [29]: 5.13 µM | CC50 [29]: 19.5 µM | GI50 [30]: 20.9 µM | TGI [30]: 41.7 µM | CC50 ([30]; read-out: LC50 (the source's name)): 83.2 µM | GI50 [31]: 2.4 µM | TGI [31]: 4.9 µM | CC50 [31]: 28.8 µM
